Test results from patent US7317006B2, “Thieno[2,3-d]pyrimidines with combined LH and FSH agonistic activity” (N.V. Organon, priority 2001, dated 2008).

Experiments:
[1] = test system: immature female mice; assay: In vivo bioactivity: ovulation induction in immature mice; conditions: immature female mice primed with urinary FSH (Humegon 12.5 IU/animal), ova in the oviduct counted 24 hours after treatment
Protocol: To measure LH in vivo activity of compounds, ovulation induction in immature mice can be studied. In this assay immature female mice are primed with urinary FSH and approximately 48 hours later treated with a LH agonistic compound. The animals are killed after LH agonist treatment and the number of ova in the oviduct is microscopically assessed.
To measure in vivo activity of LH/FSH receptor agonistic compounds ovulation induction in immature mice was studied. In this assay immature female mice were primed with urinary FSH (Humegon 12.5 IU/animal). Approximately 48 hours later the animals were treated with a LH/FSH agonistic compound at a dose-level of 50 mg/kg. The animals were killed 24 hours after LH/FSH agonist treatment and the number of ova in the oviduct was microscopically assessed.

[2] = biological target: T1, human FSH receptor (Homo sapiens, UniProt P23945); assay: CHO-FSH in vitro bioactivity (CRE-luciferase reporter); type: cell-based; conditions: CHO cells transfected with the human FSH receptor and luciferase reporter gene; read-out: EC50 CHO FSHR
T1 construct: expressed in transfected cells; host or cells: CHO cells, transfected with luciferase reporter gene
T1 sequence (P23945 18-695): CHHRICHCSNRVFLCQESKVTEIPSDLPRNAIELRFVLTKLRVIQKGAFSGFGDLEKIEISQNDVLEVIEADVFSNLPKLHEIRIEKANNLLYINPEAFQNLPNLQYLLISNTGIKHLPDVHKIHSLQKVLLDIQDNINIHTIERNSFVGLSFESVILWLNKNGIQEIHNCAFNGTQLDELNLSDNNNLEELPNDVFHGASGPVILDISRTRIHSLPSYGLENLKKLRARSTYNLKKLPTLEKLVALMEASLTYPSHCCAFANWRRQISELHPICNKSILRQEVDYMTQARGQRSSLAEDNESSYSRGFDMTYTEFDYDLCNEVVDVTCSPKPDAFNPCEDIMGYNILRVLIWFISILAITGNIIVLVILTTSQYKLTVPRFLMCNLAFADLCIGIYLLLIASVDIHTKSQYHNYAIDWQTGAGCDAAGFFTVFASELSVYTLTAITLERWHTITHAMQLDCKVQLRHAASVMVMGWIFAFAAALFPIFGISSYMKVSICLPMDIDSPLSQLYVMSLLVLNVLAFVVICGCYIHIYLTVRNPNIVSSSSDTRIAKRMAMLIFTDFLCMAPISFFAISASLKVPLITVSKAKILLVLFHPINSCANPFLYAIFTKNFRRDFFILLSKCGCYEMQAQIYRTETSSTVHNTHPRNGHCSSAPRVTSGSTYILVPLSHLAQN
Protocol: (§1) It has been shown that compounds of the above mentioned formula I show agonistic LH and FSH activity. […] Typically the FSH activity ranges from an activity of about 1% of the LH agonist stimulation to about 10% of the LH agonist stimulation.
(§2) LH agonistic activity of compounds were tested in Chinese Hamster Ovary (CHO) cells stably transfected with the human receptor and cotransfected with a cAMP responsive element (CRE)/promotor directing the expression of a firefly luciferase reporter gene. Binding of ligand to the Gs-coupled LH receptor will result in an increase of cAMP, which in turn will induce an increased transactivation of the luciferase reporter construct. The luciferase signal was quantified using a luminescence counter. For test compounds, EC50 values (concentration of test compound causing half-maximal (50%) stimulation) were calculated. For that purpose the software program GraphPad PRISM, version 3.0 (GraphPad software Inc., San Diego) was used.
In a similar way FSH agonistic activity of compounds was tested in CHO cells transfected with the luciferase reporter gene and the human FSH receptor.

[3] = biological target: T2, human LH receptor (Homo sapiens, UniProt P22888); assay: CHO-LH in vitro bioactivity (CRE-luciferase reporter); type: cell-based; conditions: CHO cells stably transfected with the human LH receptor, read-out: EC50 CHO LHR
T2 construct: expressed in transfected cells; host or cells: CHO cells, cotransfected with CRE/promotor-luciferase reporter
T2 sequence (P22888 27-699): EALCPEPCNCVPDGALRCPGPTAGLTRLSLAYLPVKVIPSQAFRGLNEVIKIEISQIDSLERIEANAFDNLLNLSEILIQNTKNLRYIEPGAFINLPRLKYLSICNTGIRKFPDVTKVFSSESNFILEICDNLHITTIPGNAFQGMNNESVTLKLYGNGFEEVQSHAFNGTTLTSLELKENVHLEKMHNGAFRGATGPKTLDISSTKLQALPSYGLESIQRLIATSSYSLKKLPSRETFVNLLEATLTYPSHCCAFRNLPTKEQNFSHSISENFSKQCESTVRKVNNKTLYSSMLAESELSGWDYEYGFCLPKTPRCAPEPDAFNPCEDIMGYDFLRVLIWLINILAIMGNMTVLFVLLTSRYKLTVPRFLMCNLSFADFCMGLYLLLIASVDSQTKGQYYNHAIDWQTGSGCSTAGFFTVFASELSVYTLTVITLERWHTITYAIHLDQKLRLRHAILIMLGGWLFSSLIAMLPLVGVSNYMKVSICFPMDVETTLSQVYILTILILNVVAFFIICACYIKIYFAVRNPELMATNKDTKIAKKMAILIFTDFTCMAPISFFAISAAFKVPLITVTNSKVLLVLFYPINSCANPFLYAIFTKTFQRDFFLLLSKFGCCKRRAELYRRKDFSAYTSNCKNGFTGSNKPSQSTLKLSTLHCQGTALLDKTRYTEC
Protocol: as §1, §2

SMILES: CSc1nc(-c2cccc(NC(=O)CN3CCC3)c2)c2c(N)c(C(=O)NC(C)(C)C)sc2n1 [Example 1, tert-Butyl 5-amino-2-methylthio-4-(3-(2-(azetidin-1-yl)-acetamido)-phenyl)-thieno[2,3-d]pyrimidine-6-carboxamide]
- mean no. of ova (50 mg/kg p.o.) [1]: 1.6
- EC50 [2]: 462 nM
- EC50 [3]: 3.86 nM

SMILES: CSc1nc(-c2cccc(NC(=O)CN3CCOCC3)c2)c2c(N)c(C(=O)NC(C)(C)C)sc2n1 [Example 2, tert-Butyl 5-amino-2-methylthio-4-(3-(2-(morpholin-4-yl)-acetamido)-phenyl)-thieno[2,3-d]pyrimidine-6-carboxamide]
- mean no. of ova (50 mg/kg p.o.) [1]: 9.3
- EC50 [2]: 42 nM
- EC50 [3]: 2.24 nM

SMILES: CSc1nc(-c2cccc(NC(=O)CN3CCSCC3)c2)c2c(N)c(C(=O)NC(C)(C)C)sc2n1 [Example 3, tert-Butyl 5-amino-2-methylthio-4-(3-(2-(thiomorpholin-4-yl)-acetamido)-phenyl)-thieno[2,3-d]pyrimidine-6-carboxamide]
- mean no. of ova (50 mg/kg p.o.) [1]: 19.8
- EC50 [2]: 1040 nM
- EC50 [3]: 8.03 nM

SMILES: CSc1nc(-c2cccc(NC(=O)CN3CCCCC3)c2)c2c(N)c(C(=O)NC(C)(C)C)sc2n1 [Example 4, tert-Butyl 5-amino-2-methylthio-4-(3-(2-(piperidin-1-yl)-acetamido)-phenyl)-thieno[2,3-d]pyrimidine-6-carboxamide]
- EC50 [2]: 201 nM
- EC50 [3]: 6.63 nM

SMILES: CSc1nc(-c2cccc(NC(=O)CN3CCCC3)c2)c2c(N)c(C(=O)NC(C)(C)C)sc2n1 [Example 5, tert-Butyl 5-amino-2-methylthio-4-(3-(2-(pyrrolidin-1-yl)-acetamido)-phenyl)-thieno[2,3-d]pyrimidine-6-carboxamide]
- EC50 [2]: 480 nM
- EC50 [3]: 6.68 nM

SMILES: CSc1nc(-c2cccc(NC(=O)CN3CCNCC3)c2)c2c(N)c(C(=O)NC(C)(C)C)sc2n1 [Example 6, tert-Butyl 5-amino-2-methylthio-4-(3-(2-(piperazin-1-yl)-acetamido)-phenyl)-thieno[2,3-d]pyrimidine-6-carboxamide]
- EC50 [2]: 150 nM
- EC50 [3]: 3.17 nM
